From patent publication US9388147B2 (Receptos, Inc., priority 2009, dated 2016)

What was measured:
[1] = molecular target: T1, S1P1 N101A (Homo sapiens, UniProt P21453, N101A); assay: Phosphorylated-ERK1/2 In Cell Western, S1P1 N101A mutant in CHOK1 cells; format: cell-based
T1 construct: expressed in transfected cells; host or cells: CHOK1
Description: A. Quick-change mutagenesis with PfuTurbo DNA polymerase (Stratagene) was conducted using S1P1/pcDNA3.1 (Missouri S&T cDNA Resource Centre) as the template. Primers were as follows: […]
PCR conditions were 15 cycles with the following parameters: 95° C. 30 sec, 58° C. 30 sec, 68° C. for 60 sec. All constructs were sequence verified.
(§1) CHOK1 cells were transfected using Fugene (Roche). Stably expressing mixed pools were selected with 2 mg/ml G418. Expression of functional S1P1/EDG1 receptor was confirmed by cell surface FACS with a S1P1 antibody (R&D Systems, clone 218713). Stable pools were seeded at 40,000 cells/well in a clear bottom 96-well tray, and incubated at 37° C. in 5% CO2 for 18 hrs. Cells were serum-starved in FreeStyle 293 medium (Invitrogen) for 4-6 h, then incubated for 5 min with a dose response of compound, in duplicate. Cells were fixed with 4% paraformaldehyde for 20 min, permeabilized with 0.1% Triton X-100 in PBS (4×5 min washes) and blocked for 1 h in Odyssey Blocking Buffer (LI-COR). All incubations were at room temperature. Cells were incubated for 18 h at 4° C. in Rabbit anti-Phospho-ERK1/2 (Cell Signaling #4377) and Mouse anti-ERK1/2 (Cell Signaling #9107) both diluted 1:800 in Odyssey Blocking Buffer. Plates were washed with 0.1% Tween-20 in PBS and then incubated with Odyssey Blocking Buffer containing IRDye 680-labeled goat anti-rabbit antibody (#926-32221; diluted 1/500) and IRDye 800CW-labeled goat anti-mouse antibody (#926-32210; diluted 1/1000). Plates were washed with 0.1% Tween-20 in PBS, all liquid was removed from the wells and the plates were scanned using a LICOR Odyssey scanner. The phospho-ERK1/2 signal was normalized to the ERK1/2 signal. Data was analyzed by non-linear regression using GraphPad Prism to determine the EC50 of binding.

[2] = molecular target: T2, S1P1 W269L (Homo sapiens, UniProt P21453, W269L); assay: Phosphorylated-ERK1/2 In Cell Western, S1P1 W269L mutant; format: cell-based
T2 construct: expressed in transfected cells; host or cells: CHOK1
Description: as §1, with “The phospho-ERK1/2 signal was normalized to the ERK1/2 signal.” left out, “binding. […]” for “binding.”

T1 sequence (P21453 whole entry N101A): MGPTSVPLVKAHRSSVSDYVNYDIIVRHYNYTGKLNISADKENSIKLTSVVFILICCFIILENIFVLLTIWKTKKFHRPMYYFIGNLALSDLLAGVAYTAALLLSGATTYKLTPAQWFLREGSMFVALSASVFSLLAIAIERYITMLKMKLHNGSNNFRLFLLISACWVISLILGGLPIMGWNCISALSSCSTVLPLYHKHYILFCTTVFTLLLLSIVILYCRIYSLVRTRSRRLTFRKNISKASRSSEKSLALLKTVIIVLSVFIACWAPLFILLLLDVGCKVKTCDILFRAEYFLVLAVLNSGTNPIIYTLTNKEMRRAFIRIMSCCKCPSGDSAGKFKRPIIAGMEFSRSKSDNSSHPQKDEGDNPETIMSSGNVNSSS
T2 sequence (P21453 whole entry W269L): as the sequence (P21453 whole entry N101A) above, with A101N, W269L counted along it

For `CC(C)Oc1ccc(-c2nc(-c3cccc4c3CC[C@@H]4N)no2)cc1C#N` [Compound 50, (S)-5-(3-(1-amino-2,3-dihydro-1H-inden-4-yl)-1,2,4-oxadiazol-5-yl)-2-isopropoxy-benzonitrile], which “Effect of mutation on binding of compound (in words)” value ([1]; S1P1 N101A) is on record?
The value was “reduces the binding”.

And the “Fold change in EC50 compared to wild type S1P1” value ([1]; S1P1 variant N101A, phospho-ERK1/2)?
The value was 32.

What about the “Effect of mutation on binding of compound (in words)” value [2] of the same molecule?
Its value is “abolishes binding”.
